Experimental data from the supplement of paper PMC10307832.

Tests used:
Experiment in all cases: relative viability (nuclei count vs DMSO), 5 days (fraction); higher = more cells survive
[1] = compound: CC(C)C[C@H](NC(=O)[C@H](CCc1ccccc1)NC(=O)CN1CCOCC1)C(=O)N[C@@H](Cc1ccccc1)C(=O)N[C@@H](CC(C)C)C(=O)[C@@]1(C)CO1 [Carfilzomib] + CS(=O)(=O)N1CCN(Cc2cc3nc(-c4cccc5[nH]ncc45)nc(N4CCOCC4)c3s2)CC1 [Pictilisib] (partner 1 µM)
How it was run: (§1)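 Relative viability equals treated-well nuclei counts divided by vehicle-well nuclei counts. Counts came from 4× images of lung cancer cell lines grown in 1536-well plates for 5 days after pin-tool dosing on the day after seeding. Dosing used one drug alone or a fixed anchor-drug dose plus five library-drug doses (not always all listed) in √10 steps, and values are medians of duplicate plates.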

[2] = compound: CC(C)C[C@H](NC(=O)[C@H](CCc1ccccc1)NC(=O)CN1CCOCC1)C(=O)N[C@@H](Cc1ccccc1)C(=O)N[C@@H](CC(C)C)C(=O)[C@@]1(C)CO1 [Carfilzomib] + Nc1ncn([C@H]2C[C@H](O)[C@@H](CO)O2)c(=O)n1 [Decitabine] (partner 2 µM)
How it was run: as §1

[3] = compound: C[C@@H](Oc1cc(-c2cnn(C3CCNCC3)c2)cnc1N)c1c(Cl)ccc(F)c1Cl [Crizotinib] + CC1(C)CCC(c2ccc(Cl)cc2)=C(CN2CCN(c3ccc(C(=O)NS(=O)(=O)c4ccc(N[C@H](CCN5CCOCC5)CSc5ccccc5)c(S(=O)(=O)C(F)(F)F)c4)cc3)CC2)C1 [Navitoclax] (partner 0.5 µM)
How it was run: as §1

[4] = compound: O=C(c1cc(Cc2n[nH]c(=O)c3ccccc23)ccc1F)N1CCN(C(=O)C2CC2)CC1 [Olaparib] + CCNC(=O)c1noc(-c2cc(C(C)C)c(O)cc2O)c1-c1ccc(CN2CCOCC2)cc1 [Luminespib] (partner 0.01 µM)
How it was run: as §1

| Cell Line | relative viability ([1]; first compound 0.001 µM) | relative viability ([1]; first compound 0.003162 µM) | relative viability ([1]; first compound 0.01 µM) | relative viability ([1]; first compound 0.03162 µM) | relative viability ([1]; first compound 0.1 µM) | relative viability ([2]; first compound 0.001 µM) | relative viability ([2]; first compound 0.003162 µM) | relative viability ([2]; first compound 0.01 µM) | relative viability ([2]; first compound 0.03162 µM) | relative viability ([2]; first compound 0.1 µM) | relative viability ([3]; first compound 0.01 µM) | relative viability ([3]; first compound 0.03162 µM) | relative viability ([3]; first compound 0.1 µM) | relative viability ([3]; first compound 0.3162 µM) | relative viability ([3]; first compound 1 µM) | relative viability ([4]; first compound 0.08 µM) | relative viability ([4]; first compound 0.253 µM) | relative viability ([4]; first compound 2.53 µM) | relative viability ([4]; first compound 8 µM) |
| --- | --- | --- | --- | --- | --- | --- | --- | --- | --- | --- | --- | --- | --- | --- | --- | --- | --- | --- | --- |
| 201T | 0.67 | 0.659 | 0.668 | 0.727 | 0.666 | 0.818 | 0.901 | 0.798 | 0.873 | 0.795 | 1.2 | 1.18 | 1.16 | 1.19 | 1.21 | 1.08 | 0.959 | 1.03 | 0.972 |
| A549 | 0.525 | 0.472 | 0.44 | 0.118 | 0.0573 | 0.167 | 0.292 | 0.109 | 0.254 | 0.0302 | 1.22 | 1.15 | 1.19 | 1.17 | 1.18 |  |  |  |  |
| A-427 | 0.776 | 0.734 | 0.632 | 0.296 | 0.092 | 0.587 | 0.565 | 0.591 | 0.527 | 0.178 | 0.95 | 1.03 | 1 |  | 1.02 | 1.02 | 0.856 | 0.859 | 0.898 |
| ABC-1 | 0.691 | 0.471 | 0.237 | 0.249 | 0.216 | 1.24 | 1.34 | 0.539 | 0.274 | 0.285 |  |  |  |  |  | 0.816 |  |  | 0.354 |
| BEN | 0.635 | 0.679 | 0.587 | 0.523 | 0.249 | 0.603 | 0.861 | 0.643 | 0.577 | 0.26 | 0.0724 | 0.0669 | 0.0752 | 0.0683 | 0.0583 |  | 0.308 | 0.283 | 0.31 |
| CAL-12T |  | 0.767 | 0.586 | 0.304 | 0.143 |  |  |  |  |  | 1.19 | 1.22 | 1.06 | 1.18 | 1.21 | 0.604 | 0.376 | 0.365 | 0.355 |
| COR-L23 | 0.756 | 0.806 | 0.678 | 0.0485 | 0.0565 | 0.383 | 0.443 | 0.386 | 0.0979 | 0.0901 | 0.952 | 0.993 | 1.1 | 0.937 | 1.03 | 0.722 | 0.539 | 0.448 | 0.186 |
| COR-L 105 | 0.414 | 0.437 | 0.346 | 0.289 | 0.23 | 0.621 | 0.752 | 0.751 | 0.466 | 0.34 | 0.771 |  | 0.908 | 0.871 | 0.76 | 0.736 | 0.782 | 0.595 | 0.565 |
| Calu-6 | 1.01 | 0.97 | 0.798 | 0.108 | 0.0567 |  |  |  |  |  | 0.8 | 0.766 | 0.836 | 0.774 | 0.735 |  |  |  |  |
| ChaGo-K-1 |  | 1.27 | 0.839 | 0.523 | 0.348 | 0.476 | 0.55 | 0.494 | 0.322 | 0.174 | 0.965 | 0.922 | 1.1 |  | 0.854 | 0.596 | 0.515 | 0.411 | 0.29 |
| EBC-1 | 0.407 | 0.347 | 0.192 | 0.0926 | 0.117 |  |  |  |  |  | 0.49 | 0.344 | 0.12 | 0.152 | 0.16 |  |  |  |  |
| EKVX | 0.443 | 0.492 | 0.542 | 0.476 | 0.169 | 0.371 | 0.36 | 0.335 |  | 0.128 | 0.879 | 1 | 0.95 | 0.871 | 0.961 | 1.03 | 0.831 | 0.791 | 0.784 |
| EMC-BAC-2 | 0.503 | 0.612 | 0.586 | 0.574 | 0.258 | 1 | 1.02 | 0.954 | 0.911 | 0.296 | 1.13 | 1.19 | 1.13 | 1.12 | 1.15 | 1.12 | 1.02 | 0.955 | 0.646 |
| EPLC-272H | 0.188 | 0.363 | 0.322 | 0.0934 | 0.0877 | 0.353 | 0.391 | 0.379 | 0.174 | 0.0719 |  | 1.1 | 1.26 | 1.1 | 1.15 | 0.291 | 0.321 | 0.254 | 0.279 |
| H3255 | 0.433 | 0.52 | 0.426 | 0.423 | 0.177 | 0.645 | 0.704 | 0.684 |  | 0.185 | 0.53 | 0.499 | 0.521 | 0.484 | 0.487 | 0.885 | 0.832 | 0.907 | 0.819 |
| HARA | 0.422 | 0.609 | 0.385 | 0.0609 | 0.0598 | 0.669 | 0.747 | 0.704 | 0.192 | 0.119 | 1.13 | 1.08 | 1.13 | 1.13 | 1.1 | 1.22 | 0.531 | 0.8 | 0.523 |
| HCC-15 | 0.596 | 0.863 | 0.784 | 0.522 | 0.156 | 0.606 | 0.725 | 0.637 | 0.424 | 0.127 | 0.644 | 0.736 | 0.704 | 0.664 | 0.76 | 0.462 | 0.372 | 0.346 | 0.191 |
| HCC-44 | 0.506 | 0.674 | 0.57 | 0.654 | 0.166 | 0.939 | 0.893 | 0.917 | 0.973 | 0.639 | 0.838 | 0.969 | 0.963 | 1.01 | 1.05 | 1.44 | 0.984 | 0.449 | 0.411 |
| HCC-78 | 0.207 | 0.194 | 0.236 | 0.134 | 0.117 | 0.622 | 0.766 | 0.672 | 0.554 | 0.302 | 0.774 | 0.738 | 0.749 | 0.685 | 0.628 |  |  |  |  |
